Assays:
T47D cells = experiment: Combination of ABT-263 or ABT-199 with proteasome inhibitors, T47D cells with reduced PSMD2; assay type: cell-based, human; conditions: T47D cells with reduced PSMD2, 72 hours
Text: FIG. 18: Plots showing effect of various concentrations of ABT-263 (upper panels) or ABT-199 (lower panels) in combination with various concentrations of ixazomib un viability of T47D cells with reduced expression of PSMD2 (KB) (right panels) or control cells (left panels). Fold viability refers to the number of viable cells of the indicated type (PSMD2 KD or control cells) after culture in the presence of the test compounds (ixazomib +ABT-263 or ixazomib +ABT-199) divided by the number of viable cells of that type after culture in the absence of the test compounds. The concentrations of ABT-263 or ABT-199 tested are shown in the legend on the right side of each panel. If no concentration is listed, the compound was absent. Fold viability of control cells cultured in the presence of ixazomib alone (i.e., in the absence ABT-263 or ABT-199) is also shown in the panels showing effect of ixazomib +ABT-263 or ixazomib +ABT-199 on PSMD2 KD cells. […]
FIGS. 21A-21C: (FIG. 21A) Plot showing synergy of ABT-263 with ixazomib in T47D cells with reduced expression of PSMD2. […] The y-axis on each plot is the calculated EC50 in micromoles for either ixazomib or bortezomib in the presence of sublethal doses of ABT-263 or A.BT-199 as indicated. Compounds were added to the cells at the same time and cell viability was measured 72 hours later.

[1] = target: β5-subunit of the proteasome (Homo sapiens, UniProt P28074); conditions: cited from earlier work
cancer cell lines (GDSC) = experiment: Genomics of Drug Sensitivity in Cancer (GDSC) data analysis, IC50 of bortezomib and MG132 vs 19S expression / sigma score; assay type: cell-based, human; conditions: GDSC database
Description: In some aspects, whether a cancer cell is considered resistant or sensitive to a particular agent may be determined by comparing the IC50 of the agent for the cancer cell with the IC50 of the agent as measured for each cell line in a panel of diverse cancer cell lines. Cancer cells for which the agent has an IC50 in the 10th percentile of IC50 values determined for the agent on a diverse panel of cancer cell lines may be considered sensitive, while cancer cells for which the agent has an IC50 in the 90th percentile of IC50 values determined for the agent on a diverse panel of cancer cell lines may be considered resistant to the agent.
We asked if this might correlate with changes in 19S subunit expression. We analyzed the Genomics of Drug Sensitivity in Cancer (GDSC) database, a public resource of transcriptional data and drug responsiveness collected from a spectrum of human cancer cell lines with diverse tissue origins and diverse oncogenic lesions (Garnett et al., 2012). […]
Further details of methods used in GDSC dataset analysis: Gene expression and drug sensitivity data was downloaded from the World Wide Web at subdomain cancerrxgene.org. […] For each proteasomal subunit gene, a-score was calculated for each cell line. […] P-values were calculated by t-test, comparing the logEC50s between the 3 sigma and not 3 sigma.

[2] = tested on: relapsed multiple myeloma; experiment: Analysis of phase 2/3 bortezomib clinical trials in relapsed multiple myeloma stratified by 19S subunit expression; assay type: in vivo, human
Description: (All patients were treated with bortezomib.) (FIG. 15B) Reduced expression of 19S subunit expression is correlated with poor tumor suppression response to bortezomib in patients with relapsed myeloma enrolled in phase 2 and phase 3 clinical trials of bortezomib. Plotted is the time to relapse for patients that relapsed that were either treated with bortezomib, stratified by reduced expression of at least one subunit of the 19S proteasome complex or the dexamethasone treated group as a control.
We analyzed gene expression data from 135 patients with relapsed multiple myeloma who participated in Phase II or III trials of bortezomib (˜2007; Mulligan, G., Mitsiades, et al. (2007) Gene expression profiling and correlation with outcome in clinical trials of the proteasome inhibitor hortezomib. Blood 109, 3177-3188) and determined the sigma score for each cancer. […]
Methods details: re-treatment gene expression data from relapsed multiple myeloma patients undergoing clinical trials with bortezomib were downloaded from GSE9782 (34). […] Sigma scores were calculated from all probes. […] P-value was calculated using Wilcoxon test.

FDX1 = target: T1, FDX1 (Homo sapiens, UniProt P10109); experiment: In vitro Fe-S cluster assembly with reduced FDX1 (absorbance at 456 nm); assay type: biochemical
T1 construct: made in house
T1 sequence (P10109 62-184): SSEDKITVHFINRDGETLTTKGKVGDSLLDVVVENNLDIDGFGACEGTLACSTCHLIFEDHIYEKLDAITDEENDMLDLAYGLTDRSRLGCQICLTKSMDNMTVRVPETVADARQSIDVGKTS
Text: FIGS. 47A-47C: Inhibition of Fe—S formation by elesclomol and variants (in-vitro). […] Note: “x(number) concentration” means that the indicated compound was present at 5 times the concentration of the enzyme.
(FIG. 53A) provides a schematic describing mitochondrial Fe—S cluster biosynthesis. The mitochondrial ISC (iron-sulfur cluster) core complex contains the scaffold protein ISCU and cysteine desulfurase (ACP-ISD11-NFS1)2. The latter catalyzes the conversion of cysteine to alanine and generates S° for iron sulfur cluster assembly. S° is reduced by FDX1. A [2Fe-2S] cluster is subsequently formed on ISCU. […] In vitro Fe—S cluster assembly was carried out with reduced. FDX1 as the reducing agent in the presence or absence of either 5× (green) or 10× (yellow) elesclomol (both relative to FDX1). Fe—S cluster formation was monitored by following the increase of absorbance at 456 nm. […] The red triangle denotes an NMR peak that became severely broadened. […] The [2Fe-2S] cluster in FDX1 is indicated by spheres.
(§1) The in vitro Fe—S cluster assembly was carried out with reduced FDX1 as the reducing agent and detected by following the increase of absorbance at 456 tun following the addition of either of 5× (green) or 10× (yellow, both relative to FDX1) compound-1. […] Fe—S formation was monitored by following the increase of absorbance at 456 nm. […] Cysteine desulfurase activity assay carried out with the indicated concentrations of elesclomol.

cysteine desulfurase = target: T2, cysteine desulfurase (Homo sapiens, UniProt Q9Y697); experiment: Cysteine desulfurase activity assay; assay type: biochemical
T2 construct: made in house
Description: as §1

T2 sequence (Q9Y697 56-457): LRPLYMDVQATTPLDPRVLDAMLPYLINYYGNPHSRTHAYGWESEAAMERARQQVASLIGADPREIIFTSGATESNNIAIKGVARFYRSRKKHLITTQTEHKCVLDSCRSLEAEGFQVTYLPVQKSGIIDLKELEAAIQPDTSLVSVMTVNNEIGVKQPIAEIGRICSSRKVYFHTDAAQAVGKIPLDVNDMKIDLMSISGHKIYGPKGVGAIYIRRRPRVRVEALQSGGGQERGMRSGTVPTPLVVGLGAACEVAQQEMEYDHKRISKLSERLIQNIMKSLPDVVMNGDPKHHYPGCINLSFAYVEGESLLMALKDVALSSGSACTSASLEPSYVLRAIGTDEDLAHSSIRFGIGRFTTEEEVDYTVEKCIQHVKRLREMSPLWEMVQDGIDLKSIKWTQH
T2 sequence (Q9HD34 whole entry, further chain): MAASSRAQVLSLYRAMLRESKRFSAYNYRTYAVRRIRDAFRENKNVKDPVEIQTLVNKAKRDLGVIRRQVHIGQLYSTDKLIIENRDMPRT
T2 sequence (P0A6A8 2-78, further chain): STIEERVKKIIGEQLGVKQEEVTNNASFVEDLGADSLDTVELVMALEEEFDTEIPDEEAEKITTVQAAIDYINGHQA

## CC1(C)CCC(c2ccc(Cl)cc2)=C(CN2CCN(c3ccc(C(=O)NS(=O)(=O)c4ccc(N[C@H](CCN5CCOCC5)CSc5ccccc5)c(S(=O)(=O)C(F)(F)F)c4)cc3)CC2)C1 [ABT-263, navitoclax]
T47D cells
  combination effect with bortezomib: synergy
  combination effect with ixazomib: synergy

## CC(C)C[C@H](NC(=O)[C@H](Cc1ccccc1)NC(=O)c1cnccn1)B(O)O [bortezomib]
[1]
  potency of inhibition of the β5-subunit: low nanomolar potency
Cancer cell lines (GDSC)
  average IC50 value in 3-Sigma cell lines vs all other lines: considerably higher
[2]; 34 patients, p-value=0.0086
  time to progression of patients with reduced 19S subunit expression vs patients without: shortened time to progression
[2]; vs dexamethasone control
  effectiveness in patients with reduced expression of 19S proteasome subunit(s): no significant effectiveness over the dexamethasone control

## CN(NC(=O)CC(=O)NN(C)C(=S)c1ccccc1)C(=S)c1ccccc1 [elesclomol]
FDX1; 5x or 10x relative to FDX1
  in vitro Fe-S cluster assembly with reduced FDX1: inhibits in vitro Fe—S cluster assembly
FDX1; x5 concentration relative to enzyme
  in vitro formation of Fe-S clusters mediated by FDX1: sufficient to induce an inhibitory effect
Cysteine desulfurase
  activity of cysteine desulfurase: does not inhibit
